Experiments:
[1] = HPLC analysis of serum lipoprotein profiles; type: in vivo, C57BL/6J female mice; conditions: HFD mice, acute treatment
Procedure: (§1) Animal studies were approved by Institutional Animal Care and Use Committee of McGuire Veterans Affairs Medical Center and were conducted in accordance with the Declaration of Helsinki, the Guide for the Care and Use of Laboratory Animals, and all applicable regulations. […] All mice were housed under identical conditions in an aseptic facility and given free access to water and food. At the end of each period, the mice were intraperitoneally injected with vehicle solution (ethanol/PBS; […] Serum triglyceride, total cholesterol, high density lipoprotein-cholesterol, glucose, alkaline phosphatase (ALK), alanine aminotransferase (ALT), and aspartate aminotransferase (AST) were measured using standard enzymatic techniques in the clinical laboratory at McGuire Veterans Affairs Medical Center. Lipoprotein profiles in sera were analyzed by HPLC as following described. […] Fractions were collected for 1.2 min each. The cholesterol assay was performed using 180 μl of each fraction plus 20 μl of a 10× solution of Wako Total Cholesterol E Reagent (Wako Chemicals USA, Richmond, Va.) in a 96 well plate, incubated at 37° C. and read at 595 nm.

[2] = Serum parameters after acute treatment of HFD- or HCD-fed mice (NAFLD model); type: in vivo, C57BL/6J female mice; conditions: 25 mg/kg i.p. twice, fasted overnight, mean ± SD, n=15-17
Procedure: Animal studies were approved by Institutional Animal Care and Use Committee of McGuire Veterans Affairs Medical Center and were conducted in accordance with the Declaration of Helsinki, the Guide for the Care and Use of Laboratory Animals, and all applicable regulations. To examine the effect of 25HC3S on diet-induced lipid accumulation in sera and liver, 8-week-old female C57BL/6J mice (Charles River, Wilmington, Mass.) were randomly assigned to three groups: the first control group was fed a chow diet; the high fat diet (HFD) group was fed a HFD (Harlan Teklad, Madison, Wis.) containing 42% kcal from fat, 43% kcal from carbohydrate, 15% kcal from protein and 0.2% cholesterol; and the high cholesterol diet (HCD) group was fed a 2% cholesterol diet with 18% kcal from fat, 58% kcal from carbohydrate and 24% kcal from protein for 10 weeks, respectively. All mice were housed under identical conditions in an aseptic facility and given free access to water and food. At the end of each period, the mice were intraperitoneally injected with vehicle solution (ethanol/PBS; Vehicle), 25HC (25 mg/kg), or 25HC3S (25 mg/kg) for 2 times and fasted over night for acute treatment (n=15-17 for each group) or once every three days for 6 weeks (n=16 for each group) and fasted 5 hrs for long-term treatment; and blood samples were collected. Serum triglyceride, total cholesterol, high density lipoprotein-cholesterol, glucose, alkaline phosphatase (ALK), alanine aminotransferase (ALT), and aspartate aminotransferase (AST) were measured using standard enzymatic techniques in the clinical laboratory at McGuire Veterans Affairs Medical Center. Lipoprotein profiles in sera were analyzed by HPLC as following described.

LXR signaling pathway = assay: Western blot of LXR and its target genes and PCNA in mouse liver (Example 3); type: in vivo, C57BL/6 mice
Procedure: Cayman Chemical, Ann Arbor, Mich.); […] […] Metabolism. (Accepted)]. […] Cell lysates were prepared from frozen mouse liver tissues. Total proteins, 100 μg, were separated by 10% SDS-PAGE, and transferred to PVDF membrane (Millipore, Eschbom, Germany). […] Louis, Mo.) was used as a loading control. The immunoreactive bands were detected by Fujifilm Medical System (Fujifilm, Stamford, Conn.) and quantified by Advanced Image Data Analyzer (Aida Inc., Straubenhardt, Germany).

SREBP-1c pathway = assay: Western blot of cytoplasmic and nuclear liver extracts, acute treatment; type: in vivo, C57BL/6J female mice; conditions: HFD mice
Procedure: as §1, with “described. Liver tissues were homogenized, and cytoplasmic and nuclear fractions were extracted with NE-PER Nuclear and Cytoplasmic Extraction Kit (Fisher Scientific, Pittsburgh, Pa.).” for “described.”, “Each positive band” for “Fractions were collected for 1.2 min each. The cholesterol assay”, “quantified by Advanced Image Data Analyzer (Aida, Straubenhardt, Germany).” for “performed using 180 μl of each fraction plus 20 μl of a 10× solution of Wako Total Cholesterol E Reagent (Wako Chemicals USA, Richmond, Va.) in a 96 well plate, incubated at 37° C. and read at 595 nm.”

[3] = HPLC analysis of 25HC3S and 25HC levels in liver tissues; type: in vivo, C57BL/6J female mice; conditions: HFD mice, acute treatment

For `CC(CCCC(C)(C)O)C1CCC2C3CC=C4CC(OS(=O)(=O)O)CCC4(C)C3CCC12C` (stereo not shown) [25HC3S, 25-hydroxycholesterol-3-sulfate], the “LDL, VLDL, and HDL protein levels” value [1] was “did not change”, the “cholesterol contents in HDL fractions” value [1] was “slightly decreased” and the “triglyceride contents in VLDL fractions” value [1] was “markedly decreased”. The ALK ([2]; HCD 10 weeks) was 89 ± 19 IU/L, the ALT ([2]; HCD 10 weeks) was 44 ± 5 IU/L and the AST ([2]; HCD 10 weeks) was 227 ± 48 IU/L. For the same compound, the Cholesterol ([2]; HCD 10 weeks) was 86 ± 7 mg/dL, the Glucose ([2]; HCD 10 weeks) was 249 ± 39 mg/dL and the HDL-C ([2]; HCD 10 weeks) was 77 ± 7 mg/dL. It also gave a Triglycerides ([2]; HCD 10 weeks) of 43 ± 8 mg/dL, an ALK ([2]; HFD 10 weeks) of 76 ± 21 IU/L and an ALT ([2]; HFD 10 weeks) of 47 ± 6 IU/L. It also gave an AST ([2]; HFD 10 weeks) of 222 ± 54 IU/L, a Cholesterol ([2]; HFD 10 weeks) of 87 ± 24 mg/dL and a Glucose ([2]; HFD 10 weeks) of 245 ± 50 mg/dL. For the same compound, the HDL-C ([2]; HFD 10 weeks) was 72 ± 26 mg/dL, the Triglycerides ([2]; HFD 10 weeks) was 34 ± 9 mg/dL and the “decrease of ABCA1 protein level” value (LXR signaling pathway; 5 mg/kg, 48 h) was 50%. For the same compound, the “decrease of LXRα protein level” value (LXR signaling pathway; 5 mg/kg, 48 h) was 40%, the “decrease of SREBP-1c protein level” value (LXR signaling pathway; 5 mg/kg, 48 h) was 30% and the “increase of PCNA protein level” value (LXR signaling pathway; 5 mg/kg, 48 h) was 2 fold. The “suppression of FAS protein level” value (SREBP-1c pathway) was 40%, the “suppression of cytoplasmic ACC1 protein level” value (SREBP-1c pathway) was 50% and the “suppression of nuclear SREBP-1c protein level” value (SREBP-1c pathway) was 70%. For the same compound, the “level of the administered compound in liver” value [3] was “significantly increased”.

With `C[C@H](CCCC(C)(C)O)[C@H]1CC[C@H]2[C@@H]3CC=C4C[C@@H](O)CC[C@]4(C)[C@H]3CC[C@]12C` [25HC, 25-hydroxycholesterol] the “cholesterol contents in LDL and HDL fractions” value [1] was “significantly increased”, the “triglyceride contents in LDL fractions” value [1] was “significantly increased” and the ALK ([2]; HFD 10 weeks) was 55 ± 12 IU/L. The ALT ([2]; HFD 10 weeks) was 56 ± 14 IU/L, the AST ([2]; HFD 10 weeks) was 294 ± 57 IU/L and the Cholesterol ([2]; HFD 10 weeks) was 144 ± 24 mg/dL. The Glucose ([2]; HFD 10 weeks) was 188 ± 26 mg/dL, the HDL-C ([2]; HFD 10 weeks) was 119 ± 21 mg/dL and the Triglycerides ([2]; HFD 10 weeks) was 49 ± 13 mg/dL. For the same compound, the “expression of ABCA1 and SREBP-1c” value (LXR signaling pathway; Ad-Control and 25HC co-treatment group) was “effectively up-regualted”, the “nuclear SREBP-1, cytoplasmic ACC1 and FAS protein levels” value (SREBP-1c pathway) was “increased” and the “level of the administered compound in liver” value [3] was “significantly increased”.
